Experiment [1] deals with morphine/heroin seeking behaviour. In words: Extinction and reinstatement of morphine/heroin seeking, mouse intravenous operant self-administration. It counts as in vivo, C57B16/J mice. The settings on record: L-histidine 1 g/kg or 2 g/kg; mice. As for the experimental part: L-Histidine solution: L-Histidine (Sigma, H-8000) at a 155.15 g/mol concentration in 0.34 M phosphoric acid is prepared as follows. 1.5 g L-histidine are dissolved in 12 ml of 0.34 M phosphoric acid to obtain a 0.8 M solution of L-histidine at approximately pH 6. pH is verified, and 0.1 g of NaCl added to a final concentration of 0.9%. Finally, the L-histidine solution is sterilized by filtration.
Animals: Male C57B16/J mice (Charles River, France) are housed individually in controlled laboratory conditions with the temperature maintained at 21±1° C., humidity at 55±10%, and light reversal cycle (light on at 20.00 h, light off at 08.00 h). Mice are tested during the dark phase of a light reversal cycle. Behavioural tests and animal care are conducted in accordance with the standard ethical guidelines (National Institutes of Health 1995; European Communities Directive 86/609 EEC) and the protocols are approved by the local ethical committee (CEEA-PRBB).
Apparatus: The self-administration experiments are conducted in mouse operant chambers (Model ENV-307A-CT, Medical Associates, Georgia, VT, USA). The experimental chambers are equipped with a house light, ventilator fan, drug infusion pump, liquid swivel with counterbalanced arm, and two manipulanda with cue lights that are located on either side of a food dipper. The manipulanda are holes (1.2 cm diameter).
The chambers are housed in sound- and light-attenuated boxes equipped with fans to provide ventilation and white noise. […]
The catheter tubing is inserted 1.3 cm into the right jugular vein and anchored with suture. […] The patency of intravenous catheters is evaluated periodically (approximately every 6 days). Patency is also evaluated whenever drug self-administration behavior appears to deviate dramatically from that observed previously. […]
L-Histidine dosage: The first L-histidine dose is 1 g/kg. […] Dosage for other H3 histaminergic agonists or H3 histaminergic agonist precursors is determined considering the pharmacokinetic and toxicological characteristics of the compound. […]

The next experiment has as its system alcohol seeking behavior. Kind of experiment: Relapse into seeking alcohol self-administration (reinstatement by alcohol or foot-shock stress). It counts as in vivo, Sprague-Dawley rat. The settings on record: L-histidine 1 g/kg orally, rats. As for the experimental part: Fourteen male Sprague-Dawley rats obtained from Charles-River weighing 200 g at the beginning of the protocol are used. Rats are water-deprived for the few hours before the first overnight session. Rats are placed in an operant chamber (Panlab) with two levers. Pressing the “active” lever provides access to 0.1 ml of a 20% sucrose solution under a continuous reinforcement program. A light above the active lever signals availability of the solution in a drinking chamber for 20 seconds.
The following daily sessions take 60 minutes and water is provided ad libitum. […] Afterwards, the program is increased to Fixed Ratio 2 (FR2), i.e., two lever presses give access to one reinforcement. Self-administration is maintained next to FR3 and finally to FR5.
Before extinction sessions, saline is administered orally (5 ml/kg) to all rats. For extinction training, rats are placed in the same operant chambers but no alcohol access or cue light is contingent on lever press. Once rats decrease lever press to less than 10 presses per hour they are considered ready for reinstatement (relapse) procedures.
Before the reinstatement sessions, saline 5 ml/kg or L-histidine 1 g/kg (dissolved in saline and adjusted to pH 5) are administered orally to the rats. […]

Experiment [2] relates to reinforcement produced by cocaine. In words: Reinforcement phase: cocaine self-administration dose/response. It counts as in vivo, rat. Particulars: L-histidine 500 mg/kg single dose one hour before reinforcement; even at 0.03 mg/kg cocaine; rats.

Structures are written as SMILES.

`N[C@@H](Cc1c[nH]cn1)C(=O)O` [L-histidine]: in experiment [1], the “cue-induced reinstatement of morphine/heroine seeking” value is given as “decreases cue-induced reinstatement”, the “number of sessions required to achieve extinction criteria (morphine/heroin)” value is “shortens the number of sessions” and the “responding during the first extinction session (morphine/heroin)” value was “decreases or delays responding”. Moreover, in the experiment on alcohol seeking behavior (foot-shock stress), the “reinstatement of alcohol seeking behavior caused by stress” value is recorded as “decreases the reinstatement”. The “reinstatement of alcohol seeking behavior caused by exposure to ethanol” value in the experiment with alcohol seeking behavior is listed as “decreases the reinstatement”. Further, the “tendency to seek cocaine (self-injections in 2 hours)” value in experiment [2] is on record as “diminished the tendency to seek cocaine”.

(Values after patent US20110130425A1, “Use of H3 Histaminergic Agonists for the Treatment of Addiction to Drugs of Abuse” (priority 2009, published 2011).)
